From patent US20120328713A1, “Articles of Manufacture with Improved Anti-microbial Properties” (priority 2009, published 2012)

Experiments:
[1] = test system: downy mildew (Peronospora paratsitica Lui); assay: Field trial, foliar spray against downy mildew (Example 24); format: in vivo; conditions: compared with the check
Experimental: (§1) Silver (III) periodate was tested as a fungicidal foliar spray treatment against alternaria leaf blight (Alternaria brassicicola) and downy mildew (Peronospora paratsitica Lui) in cauliflower (Brassica oleracea var. botrytis) and broccoli (Brassica oleracea […]), respectively.
See Example 23 for Preparation of Tomato Seed; Preparation of Field; Seeding; Plot Maintenance; Preparation of Spray Treatment Solutions and Inoculum; Spray Treatment Procedure; and Data Collection.

P. aeruginosa ATCC 27853 = assay: Silver (III) periodate efficacy testing in the presence of Cl-, SO4 2-, and PO4 3-; format: cell-based; conditions: water, 1% NaCl, 1% K2SO4 and 1% K2HPO4 solutions; challenge time 30 minutes; tested 1.5-200 ppm
Experimental: Silver (III) periodate was tested for efficacy in water, 1% NaCl, 1% K2SO4, and 1% K2HPO4 solutions, and compared with silver nitrate. The test solutions were tested against P. aeruginosa ATCC 27853. The challenge time was 30 minutes. Silver (III) periodate and silver nitrate were tested at range of 1.5-200 ppm.

[2] = test system: bacterial speck (Pseudomonas syringae pv. tomato); assay: Field trial, foliar spray against bacterial speck in tomatoes (Example 18); format: in vivo, tomatoes (Lycopersicon esculentum); conditions: after three treatment sprays
bacterial speck = assay: Field trial, foliar spray against bacterial speck in tomato (Example 22); format: in vivo; conditions: compared with the standard Kocide and Kocide+Dithane
Experimental: Silver (III) periodate was tested as a foliar spray treatment fungicide against bacterial speck in tomato.
See Example 22 for Preparation of Tomato Seed; Preparation of Field; Seeding; Plot Maintenance; Preparation of Spray Treatment Solutions and Inoculum; Spray Treatment Procedure; and Data Collection.
The treatments compared were water (control), oxysilver nitrate, silver (III) periodate, Dithane, Kocide 2000, Dithane DG 75+Kocide 2000, oxysilver nitrate+Dithane, and silver (III) periodate+Dithane, Serenade Max, and Serenade Max+oxysilver nitrate.

[3] = test system: Candida albicans ATCC 28367; assay: MBEC P&G assay in dilutions of human serum; format: cell-based
Experimental: (§2) The effects of silver (III) periodate and silver nitrate were tested in different dilutions of human serum (0.001%, 0.01%, 0.1%, 1%, 10%, 50%) using the MBECTM P&G assay against relevant clinical human pathogens Escherichia coli, Staphylococcus aureus (MRSA), and Candida albicans. The challenge time was 4 hours. The tested concentration range for the silver compounds was 500 to 7.8 ppm.

[4] = test system: Staphylococcus aureus (MRSA) 456; assay: MBEC P&G assay in dilutions of human serum; format: cell-based
Experimental: as §2

[5] = test system: Escherichia coli ATCC 25922; assay: MBEC P&G assay in dilutions of human serum; format: cell-based
Experimental: as §2

[6] = test system: relevant clinical pathogens in biofilm form (Pseudomonas aeruginosa, MRSA, MRSE, Acinetobacter baumanii, Listeria monocytogenes, VRE, Escherichia coli, Candida …); assay: MBEC efficacy testing against relevant clinical pathogens in saline; format: cell-based; conditions: challenge time 4 hours, 2000 ppm to 15.62 ppm
Experimental: The antimicrobial effect of silver (III) periodate and silver nitrate (2000 ppm to 15.62 ppm) in saline was tested against Pseudomonas aeruginosa, Staphylococcus aureus (MRSA), Staphylococcus epidermidis (MRSE), Acinetobacter baumanii, Listeria monocytogenes, Enterococcus faecalis (VRE), Escherichia coli, Candida albicans, Klebsiella pneumonia, Enterobacter aerongenes. The challenge time was 4 hours.

[7] = test system: bacterial canker (Clavibacter michiganensis pv. michiganensis); assay: Field trial, foliar spray against bacterial canker in tomatoes (Example 19); format: in vivo, tomatoes (Lycopersicon esculentum)
Experimental: Silver (III) periodate was tested as a bactericidal foliar spray treatment against bacterial canker (Clavibacter michiganensis pv. michiganensis) in tomatoes (Lycopersicon esculentum).
See Example 18 for Preparation of Tomato Seed; Preparation of Field; Seeding; Plot Maintenance; Preparation of Spray Treatment Solutions and Inoculum; Spray Treatment Procedure; and Data Collection.

[8] = test system: alternaria leaf blight (Alternaria brassicicola); assay: Field trial, foliar spray against alternaria leaf blight in cauliflower and broccoli (Example 23); format: in vivo
Experimental: as §1
Preparation of Seed, Preparation of Field, Seeding, Plot Maintenance: Two trials were conducted in organic soil (pH ≈7.2, organic matter ≈47.2%). Cauliflower and broccoli were seeded into 128-cell Plastomer plug trays in early June and hand transplanted in early July in two rows, 86 cm apart and 9 meter in length, with an in-row spacing of 40 cm. A randomized complete block arrangement with four replicates per treatment was used. Treatments were applied in July and August using a CO2 backpack sprayer equipped with 4 TeeJet D-2 hollow cone nozzles spaced 40 cm apart and calibrated to deliver 250 L/ha at 240 kPa.
This was immediately followed by irrigation to achieve leaf wetness. The plots were treated prior to inoculation.
Preparation of Spray Treatment Solutions and Inoculum: The treatment rate for silver (III) periodate was 0.16 kg/ha. It was also combined (at this rate) with Bravo, which was delivered at 2.5L/ha.
Data Collection: Plants were monitored weekly to determine when lesions were first observed. Plants (15 per rep, randomly selected and marked for continued assessment) were assessed twice during the growing season for number of lesions per leaf. As heads mature, 15 heads per rep in total were harvested and assessed from each experimental unit. The number of Alternaria le sions per leaf were counted. Healthy leaves were counted and trimmed head weights were recorded to indicate marketable yield.
Treatments compared were oxysilver nitrate, silver (III) periodate, Bravo, Bravo+oxysilver nitrate, Bravo+silver (III) periodate, and water (control).

[9] = test system: Escherichia coli (ATCC 25922); assay: MBEC P&G assay in dilutions of feces; format: cell-based
Experimental: The challenge time was 4 hours. The tested concentration range for both silver compounds was 500 to 7.8 ppm.

[10] = test system: Escherichia coli (ATCC 25922); assay: MBEC P&G assay in dilutions of urine; format: cell-based
Experimental: (§3) The effects of silver (III) periodate and silver nitrate in different dilutions of urine (0.001%, 0.01%, 0.1%, 1%, 10%, 50%) using the MBEC™ P&G assay were tested against Escherichia coli (ATCC 25922)The challenge time was 4 hours. The tested concentration range for both silver compounds was 500 to 7.8 ppm.

[11] = test system: Escherichia coli (ATCC 25922); assay: MBEC P&G assay in dilutions of mucin; format: cell-based
Experimental: as §3, with “mucin (2.0%, 1.0%, 0.5%, 0.25%, 0.12%, 0.06%) were tested” for “urine (0.001%, 0.01%, 0.1%, 1%, 10%, 50%)”, “assay” for “assay were tested”

`[Ag+3].[Na+].[Na+].[Na+].[Na+].[Na+].[O-][I+]([O-])([O-])([O-])([O-])O.[O-][I+]([O-])([O-])([O-])([O-])O` [silver (III) periodate, sodium diperiodatoargentate] was tested, and the “downy mildew severity indexes” value [1] was “significantly lower downy mildew severity indexes than the check”, the effective concentration (P. aeruginosa ATCC 27853) was 1.73 ppm and the “disease severity on foliage” value [2] was “best at reducing disease severity on foliage”. The “levels of bacterial speck (number of infected leaves) or disease severity ratings” value (bacterial speck) was “did not have statistically different levels”, the log reduction ([3]; 0.1%, 0.01%, 0.001% human serum, concentrations higher than 125 ppm) was “higher log reductions” and the log reduction ([3]; 10% and 1% human serum, 31.25-125 ppm) was “Log reductions were higher”. For the same molecule, the “log reduction compared with the other compound” value ([4]; 0.001% human serum, 31.25-125 ppm) was “higher log reductions”, the killing activity ([4]; 0.1% and 0.01% human serum) was “no significant killing activity” and the “killing activity, silver (III) periodate vs silver nitrate” value ([4]; high concentrations of human serum) was “no significant differences”. For the same molecule, the “log reduction compared with silver nitrate” value ([5]; 0.1% and 0.01% human serum, low tested concentrations) was “lower log reduction than silver nitrate”, the “difference in log reduction over silver nitrate” value ([5]; 50% and 10% human serum, even at concentrations as low as 7.8 ppm) was 1.5-2.0 log reduction and the “log reduction, trend with compound concentration” value (“log reduction, trend” below) ([5]; human serum dilutions, in general, 4 hours, 500 to 7.8 ppm) was “log reductions decreased with the decrease in concentrations of silver (III) periodate”. For the same molecule, the “MBEC (minimum biofilm eradication concentration) killing activity” value [6] was “higher killing activity than silver nitrate against most of the tested strains”, the “disease severity on foliage” value ([7]; after three treatment sprays) was “best at reducing disease severity on foliage” and the “disease severity on foliage” value ([7]; after two treatment sprays) was “best at reducing disease severity on foliage”. The harvest weights ([8]; broccoli) was “higher harvest weights (not significant)”, the “Alternaria lesions per leaf” value ([8]; compared with the check, broccoli) was “significantly lower Alternaria lesions per leaf than the check” and the “Alternaria lesions per leaf” value ([8]; second result paragraph, crop not given) was “higher Alternaria lesions per leaf than the check and other treatments”. For the same molecule, the “MBC, effective level” value ([9]; 1.56% feces) was over 15.6 ppm, the “MBEC, effective level” value ([9]; 1.56% feces) was 125 ppm and the “MBC, effective level” value ([9]; 3.13% feces) was over 31.25 ppm. The “MBEC, effective level” value ([9]; 3.13% feces) was 250 ppm, the “MBC, effective level” value ([9]; 6.25% feces) was over 62.5 ppm and the “MBEC, effective level” value ([9]; 6.25% feces) was 125 ppm. The “MBC, effective level” value ([9]; 12.5% feces) was over 62.5 ppm, the “MBC, effective level” value ([9]; 25% feces) was “higher than 125 ppm” and the “MBC, effective level” value ([9]; 50% feces) was “higher than 125 ppm”. The “MBEC, effective level” value ([9]; concentrations of feces higher than 12.5%, ineffective at highest tested concentration) was over 500 ppm, the MBC cut-off point ([10]; 10% urine) was 31.25 ppm and the MBC cut-off point ([10]; 100% urine) was 250 ppm. The log reduction ([10]; 500 and 250 ppm, all tested concentrations of urine) was “approximately equal log reductions”, the “log reduction compared with the other compound” value ([10]; compound concentrations of 125 ppm and below) was “larger log reduction at the lower and middle concentrations” and the “compound concentration giving the highest log reduction” value ([10]; concentrations at 125 ppm and below, urine) was 62.5 ppm. The “log reduction, trend” value ([11]; higher concentrations of mucin) was “log reduction decreased with a decrease in concentration of silver (III) periodate”, the “effectiveness compared with the other compound” value ([11]; higher concentrations of mucin (2% and 1%)) was “more effective than silver nitrate” and the “log reduction, trend” value ([11]; lower concentrations of mucin (0.25%, 0.12% and 0.06%)) was “log reduction was relatively unaffected by the changes in concentration”. The “effectiveness compared with the other compound” value ([11]; mucin 0.5%, 0.25%, 0.12% and 0.06%, lower compound concentrations) was “more effective than the lower tested concentrations of silver nitrate”.
